Measured values reported in patent publication US7473669B2, “Substituted 4,5-dihydro-1,2,4-triazin-6-ones, 1,2,4-triazin-6-ones, and their use as fungicides” (priority 2005, dated 2009).
Read-outs that look alike come from different tables or passages of the source.

What was measured:
Type in all cases: in vivo
[1] = tested on: Colletotricum lagenarium; assay: Cucumber Anthracnose greenhouse one-day protectant test; details: Cucumis sativus, 24 h, read-out: COLLLA percent control rating
[2] = tested on: Puccinia recondita tritici; assay: Leaf Rust of Wheat greenhouse one-day protectant test; details: 24 h, read-out: PUCCRT percent control rating
[3] = tested on: Phytophthora infestans; assay: whole plant or invertebrate; details: in Solanum lycopersicum, 24 h, read-out: PHYTIN percent control rating, tomato plants, one-day protectant test, 200 ppm application rate
[4] = tested on: Pyricularia oryzae; assay: whole plant or invertebrate; details: 24 h, read-out: PYRIOR percent control rating
[5] = tested on: Erysiphe cichoracaerum; assay: Cucumber Powdery Mildew greenhouse one-day protectant test; details: 24 h, read-out: ERYSCI percent control rating
[6] = tested on: Leptosphaeria nodorum; assay: Glume Blotch of Wheat greenhouse one-day protectant test; details: Parastagonospora nodorum, 24 h, read-out: LEPTNO percent control rating
[7] = cucumber plants, one-day protectant test, 200 ppm application rate
[8] = wheat plants, one-day protectant test, 200 ppm application rate

## O=C1CNC(c2cccc(C#Cc3ccccc3)c2)=NN1CC(F)(F)F [Compound 70]
[1]; [7]
  pest or weed control at 200 ppm: 0 to 49%
[2]; [8]
  pest or weed control at 200 ppm: 0 to 49%
[3]
  pest or weed control at 200 ppm: 0 to 49%
[4]
  pest or weed control at 200 ppm: 80 to 100%
[5]; [7]
  pest or weed control at 200 ppm: 0 to 49%
[6]; [8]
  pest or weed control at 200 ppm: 0 to 49%

## O=C1CNC(c2cccc(/C=C\c3ccccc3)c2)=NN1CC(F)(F)F [Compound 71]
[1]; [7]
  pest or weed control at 200 ppm: 0 to 49%
[2]; [8]
  pest or weed control at 200 ppm: 50 to 79%
[3]
  pest or weed control at 200 ppm: 0 to 49%
[4]
  pest or weed control at 200 ppm: 50 to 79%
[5]; [7]
  pest or weed control at 200 ppm: 0 to 49%
[6]; [8]
  pest or weed control at 200 ppm: 80 to 100%

## O=C1CNC(c2cccc(/C=C3/CCc4ccccc43)c2)=NN1CC(F)(F)F [Compound 72]
[1]; [7]
  pest or weed control at 200 ppm: 0 to 49%
[2]; [8]
  pest or weed control at 200 ppm: 80 to 100%
[3]
  pest or weed control at 200 ppm: 0 to 49%
[4]
  pest or weed control at 200 ppm: 80 to 100%
[5]; [7]
  pest or weed control at 200 ppm: 0 to 49%
[6]; [8]
  pest or weed control at 200 ppm: 80 to 100%

## O=C1CNC(c2cccc(C(=NOCc3ccccc3)c3ccccc3)c2)=NN1CC(F)(F)F [Compound 76]
[1]; [7]
  pest or weed control at 200 ppm: 0 to 49%
[2]; [8]
  pest or weed control at 200 ppm: 50 to 79%
[3]
  pest or weed control at 200 ppm: 0 to 49%
[4]
  pest or weed control at 200 ppm: 80 to 100%
[5]; [7]
  pest or weed control at 200 ppm: 0 to 49%
[6]; [8]
  pest or weed control at 200 ppm: 50 to 79%

## O=c1cnc(-c2ccc(N3CCOCC3)cc2)nn1CC(F)(F)F [Compound 77]
[1]; [7]
  pest or weed control at 200 ppm: 80 to 100%
[2]; [8]
  pest or weed control at 200 ppm: 0 to 49%
[3]
  pest or weed control at 200 ppm: 50 to 79%
[4]
  pest or weed control at 200 ppm: 80 to 100%
[5]; [7]
  pest or weed control at 200 ppm: 50 to 79%
[6]; [8]
  pest or weed control at 200 ppm: 50 to 79%

## O=c1cnc(-c2ccc(Oc3cccnc3)cc2)nn1CC(F)(F)F [Compound 78]
[1]; [7]
  pest or weed control at 200 ppm: 80 to 100%
[2]; [8]
  pest or weed control at 200 ppm: 80 to 100%
[3]
  pest or weed control at 200 ppm: 80 to 100%
[4]
  pest or weed control at 200 ppm: 80 to 100%
[5]; [7]
  pest or weed control at 200 ppm: 0 to 49%
[6]; [8]
  pest or weed control at 200 ppm: 50 to 79%

## O=c1cnc(-c2csc(-c3ccccc3)c2)nn1CC(F)(F)F [Compound 79]
[1]; [7]
  pest or weed control at 200 ppm: 50 to 79%
[2]; [8]
  pest or weed control at 200 ppm: 80 to 100%
[3]
  pest or weed control at 200 ppm: 0 to 49%
[4]
  pest or weed control at 200 ppm: 80 to 100%
[5]; [7]
  pest or weed control at 200 ppm: 0 to 49%
[6]; [8]
  pest or weed control at 200 ppm: 80 to 100%

## CCCCn1nc(-c2cc(-c3ccsc3)cc(-c3ccsc3)c2)ncc1=O [Compound 81]
[1]; [7]
  pest or weed control at 200 ppm: 0 to 49%
[2]; [8]
  pest or weed control at 200 ppm: 0 to 49%
[3]
  pest or weed control at 200 ppm: 0 to 49%
[4]
  pest or weed control at 200 ppm: 0 to 49%
[5]; [7]
  pest or weed control at 200 ppm: 0 to 49%
[6]; [8]
  pest or weed control at 200 ppm: 80 to 100%

## O=c1cnc(-c2cc(Br)cc(-c3ccsc3)c2)nn1Cc1ccccc1 [Compound 82]
[1]; [7]
  pest or weed control at 200 ppm: 0 to 49%
[2]; [8]
  pest or weed control at 200 ppm: 0 to 49%
[3]
  pest or weed control at 200 ppm: 0 to 49%
[4]
  pest or weed control at 200 ppm: 50 to 79%
[5]; [7]
  pest or weed control at 200 ppm: 0 to 49%
[6]; [8]
  pest or weed control at 200 ppm: 80 to 100%

## O=c1cnc(-c2cc(Br)cc(-c3ccsc3)c2)nn1CCc1ccccc1 [Compound 83]
[1]; [7]
  pest or weed control at 200 ppm: 0 to 49%
[2]; [8]
  pest or weed control at 200 ppm: 0 to 49%
[3]
  pest or weed control at 200 ppm: 0 to 49%
[4]
  pest or weed control at 200 ppm: 0 to 49%
[5]; [7]
  pest or weed control at 200 ppm: 0 to 49%
[6]; [8]
  pest or weed control at 200 ppm: 50 to 79%

## Cc1cc(C)cc(-c2ncc(=O)n(Cc3c(F)c(F)c(F)c(F)c3F)n2)c1 [Compound 85]
[1]; [7]
  pest or weed control at 200 ppm: 80 to 100%
[2]; [8]
  pest or weed control at 200 ppm: 80 to 100%
[3]
  pest or weed control at 200 ppm: 0 to 49%
[4]
  pest or weed control at 200 ppm: 80 to 100%
[5]; [7]
  pest or weed control at 200 ppm: 0 to 49%
[6]; [8]
  pest or weed control at 200 ppm: 80 to 100%

## Cc1cc(C)cc(-c2ncc(=O)n(CCOc3ccccc3)n2)c1 [Compound 86]
[1]; [7]
  pest or weed control at 200 ppm: 80 to 100%
[2]; [8]
  pest or weed control at 200 ppm: 80 to 100%
[3]
  pest or weed control at 200 ppm: 0 to 49%
[4]
  pest or weed control at 200 ppm: 80 to 100%
[5]; [7]
  pest or weed control at 200 ppm: 0 to 49%
[6]; [8]
  pest or weed control at 200 ppm: 80 to 100%

## O=c1cnc(-c2cc(Cl)cc(Cl)c2)nn1CCOc1ccccc1 [Compound 87]
[1]; [7]
  pest or weed control at 200 ppm: 0 to 49%
[2]; [8]
  pest or weed control at 200 ppm: 0 to 49%
[3]
  pest or weed control at 200 ppm: 0 to 49%
[4]
  pest or weed control at 200 ppm: 0 to 49%
[5]; [7]
  pest or weed control at 200 ppm: 0 to 49%
[6]; [8]
  pest or weed control at 200 ppm: 0 to 49%

## O=c1cnc(-c2ccc(-c3ccc(Cl)s3)nc2)nn1CC(F)(F)F [Compound 88]
[1]; [7]
  pest or weed control at 200 ppm: 0 to 49%
[2]; [8]
  pest or weed control at 200 ppm: 0 to 49%
[3]
  pest or weed control at 200 ppm: 0 to 49%
[4]
  pest or weed control at 200 ppm: 0 to 49%
[5]; [7]
  pest or weed control at 200 ppm: 0 to 49%
[6]; [8]
  pest or weed control at 200 ppm: 50 to 79%

## O=c1cnc(-c2cccc(/C=C\c3ccccc3)c2)nn1CC(F)(F)F [Compound 89]
[1]
  pest or weed control at 200 ppm: 50 to 79%
[2]
  pest or weed control at 200 ppm: 80 to 100%
[3]
  pest or weed control at 200 ppm: 0 to 49%
[4]
  pest or weed control at 200 ppm: 80 to 100%
[5]
  pest or weed control at 200 ppm: 0 to 49%
[6]
  pest or weed control at 200 ppm: 80 to 100%
